Consider eleven compounds from US20230277612A1, “SAPONIN DERIVATIVES FOR USE IN MEDICINE” (priority 2020, published 2023).

Data set [1] deals with EGFR expressing cells (HeLa and A431). As to conditions: summary in description.
The nature of data set [2]: Critical micellar concentration (CMC) by ANS fluorescence. Format: physicochemical. The protocol:
The critical micellar concentration (CMC) of saponins derived from Saponaria officinalis (SO) (Table A7) and derived from Quillaja saponaria (QS) (Table A8, and Table A9) was determined by the method of DeVendittis et al. (A fluorimetric method for the estimation of the critical micelle concentration of surfactants, Analytical Biochemistry, Volume 115, Issue 2, August 1981, Pages 278-286) as follows:
(§1) The emission spectrum of 8-Anilinonaphthalene-1-sulfonic acid (ANS) in either purified water (MQ) or PBS (Dulbecco's PBS+/+) was determined at dry weight concentrations of saponins ranging from 1 to 1400 pM to cover the range below and above the CMC. Above the CMC, the fluorescence yield of ANS increases and the wavelength of maximum emission decreases due to portioning of the fluorescent dye into micelles. Fluorescence yields were recorded on a Fluoroskan Ascent FL (Thermo Scientific) at an excitation wavelength of 355 nm, and an emission wavelength of 460 nm. 6 μg at a concentration of 75.86 pM of ANS were used per sample and measurement.
The critical micellar concentration (CMC) of saponins was determined by the method of DeVendittis et al. (A fluorimetric method for the estimation of the critical micelle concentration of surfactants, Analytical Biochemistry, Volume 115, Issue 2, August 1981, Pages 278-286) as follows:
as §1, with “μM” for “pM”

The structures appear in SMILES notation.

Take `CC(=O)OC1C(C)OC(OC2C(C)OC(OC(=O)[C@]34CCC(C)(C)CC3C3=CCC5[C@@]6(C)CC[C@H](OC7OC(C(=O)NC(C)(CO)CO)C(O)C(OC8OCC(O)C(O)C8O)C7OC7OC(CO)C(O)C(O)C7O)[C@@](C)(C=O)C6CC[C@@]5(C)[C@]3(C)C[C@H]4O)C(OC3OC(C)C(OC4OCC(O)C(OC5OC(CO)C(O)C(O)C5O)C4O)C(O)C3O)C2O)C(O)C1OC1OCC(O)C(O)C1O` (stereo partly drawn) [Molecule 3A]: the “Endosomal escape enhancing activity (enhancement of cytotoxicity of effector conjugate)” value (shortened to “Endosomal escape enhancing activity”) in data set [1] is reported as “display activity”. Regarding `CC(=O)OC1C(C)OC(OC2C(C)OC(OC(=O)[C@]34CCC(C)(C)CC3C3=CCC5[C@@]6(C)CC[C@H](OC7OC(C(=O)O)C(O)C(OC8OCC(O)C(O)C8O)C7OC7OC(CO)C(O)C(O)C7O)[C@@](C)(CO)C6CC[C@@]5(C)[C@]3(C)C[C@H]4O)C(OC3OC(C)C(OC4OCC(O)C(OC5OC(CO)C(O)C(O)C5O)C4O)C(O)C3O)C2O)C(O)C1OC1OCC(O)C(O)C1O` (stereo partly drawn) [Molecule 6], the “Endosomal escape enhancing activity” value in data set [1] was “have the capacity to enhance the cytotoxic effect”. Also, the “CMC compared to corresponding underivatised saponin” value in data set [2] is reported as “increased CMC”. On the same counts, the results for `CC1OC(OC2C(C)OC(OC(=O)[C@]34CCC(C)(C)CC3C3=CCC5[C@@]6(C)CC[C@H](OC7OC(C(=O)O)C(O)C(OC8OCC(O)C(O)C8O)C7OC7OC(CO)C(O)C(O)C7O)[C@@](C)(C=O)C6CC[C@@]5(C)[C@]3(C)C[C@H]4O)C(OC3OC(C)C(OC4OCC(O)C(OC5OC(CO)C(O)C(O)C5O)C4O)C(O)C3O)C2O)C(O)C(OC2OCC(O)C(O)C2O)C1O` (stereo partly drawn) [Molecule 8] are “display activity” and “increased CMC”.

Take `CC(=O)OC1C(C)OC(OC2C(C)OC(OC(=O)[C@]34CCC(C)(C)CC3C3=CCC5[C@@]6(C)CC[C@H](OC7OC(C(=O)NC(C)(CO)CO)C(O)C(OC8OCC(O)C(O)C8O)C7OC7OC(CO)C(O)C(O)C7O)[C@@](C)(CO)C6CC[C@@]5(C)[C@]3(C)C[C@H]4O)C(OC3OC(C)C(OC4OCC(O)C(OC5OC(CO)C(O)C(O)C5O)C4O)C(O)C3O)C2O)C(O)C1OC1OCC(O)C(O)C1O` (stereo partly drawn) [Molecule 9]: in data set [1], the “Endosomal escape enhancing activity” value is on record as “have the capacity to enhance the cytotoxic effect”. For the compound `CC1OC(OC2C(C)OC(OC(=O)[C@]34CCC(C)(C)CC3C3=CCC5[C@@]6(C)CC[C@H](OC7OC(C(=O)O)C(O)C(OC8OCC(O)C(O)C8O)C7OC7OC(CO)C(O)C(O)C7O)[C@@](C)(CO)C6CC[C@@]5(C)[C@]3(C)C[C@H]4O)C(OC3OC(C)C(OC4OCC(O)C(OC5OC(CO)C(O)C(O)C5O)C4O)C(O)C3O)C2O)C(O)C(OC2OCC(O)C(O)C2O)C1O` (stereo partly drawn) [Molecule 10], the “Endosomal escape enhancing activity” value in data set [1] is recorded as “have the capacity to enhance the cytotoxic effect”. In data set [2], the “CMC compared to corresponding underivatised saponin” value was “increased CMC”. As for `CC1OC(OC2C(C)OC(OC(=O)[C@]34CCC(C)(C)CC3C3=CCC5[C@@]6(C)CC[C@H](OC7OC(C(=O)NC(C)(CO)CO)C(O)C(OC8OCC(O)C(O)C8O)C7OC7OC(CO)C(O)C(O)C7O)[C@@](C)(C=O)C6CC[C@@]5(C)[C@]3(C)C[C@H]4O)C(OC3OC(C)C(OC4OCC(O)C(OC5OC(CO)C(O)C(O)C5O)C4O)C(O)C3O)C2O)C(O)C(OC2OCC(O)C(O)C2O)C1O` (stereo partly drawn) [Molecule 11], the “Endosomal escape enhancing activity” value in data set [1] is “display activity”.

`CC(=O)OC1C(C)OC(OC2C(C)OC(OC(=O)C34CCC(C)(C)CC3C3=CCC5C6(C)CCC(OC7OC(C(=O)NC(C)(CO)CO)C(O)C(OC8OCC(O)C(O)C8O)C7OC7OC(CO)C(O)C(O)C7O)C(C)(C=NNC(=O)CCCCCN7C(=O)C=CC7=O)C6CCC5(C)C3(C)CC4O)C(OC3OC(C)C(OC4OCC(O)C(OC5OC(CO)C(O)C(O)C5O)C4O)C(O)C3O)C2O)C(O)C1OC1OCC(O)C(O)C1O` (stereo not drawn) [Molecule 14]: the “Endosomal escape enhancing activity” value in data set [1] is on record as “have the capacity to enhance the cytotoxic effect”.

As for `CC1OC(OC2C(C)OC(OC(=O)C34CCC(C)(C)CC3C3=CCC5C6(C)CCC(OC7OC(C(=O)O)C(O)C(OC8OCC(O)C(O)C8O)C7OC7OC(CO)C(O)C(O)C7O)C(C)(C=NNC(=O)CCCCCN7C(=O)C=CC7=O)C6CCC5(C)C3(C)CC4O)C(OC3OC(C)C(OC4OCC(O)C(OC5OC(CO)C(O)C(O)C5O)C4O)C(O)C3O)C2O)C(O)C(OC2OCC(O)C(O)C2O)C1O` (stereo not drawn) [Molecule 15], the “Endosomal escape enhancing activity” value in data set [1] is on record as “have the capacity to enhance the cytotoxic effect”. In data set [2], the “CMC compared to corresponding underivatised saponin” value is “increased CMC”. For the compound `CC(=O)OC1C(C)OC(OC2C(C)OC(OC(=O)[C@]34CCC(C)(C)CC3C3=CCC5[C@@]6(C)CC[C@H](OC7OC(C(=O)NCCN8C(=O)C=CC8=O)C(O)C(OC8OCC(O)C(O)C8O)C7OC7OC(CO)C(O)C(O)C7O)[C@@](C)(C=O)C6CC[C@@]5(C)[C@]3(C)C[C@H]4O)C(OC3OC(C)C(OC4OCC(O)C(OC5OC(CO)C(O)C(O)C5O)C4O)C(O)C3O)C2O)C(O)C1OC1OCC(O)C(O)C1O` (stereo partly drawn) [Molecule 18], the “Endosomal escape enhancing activity” value in data set [1] is “display activity”. `CC1OC(OC2C(C)OC(OC(=O)[C@]34CCC(C)(C)CC3C3=CCC5[C@@]6(C)CC[C@H](OC7OC(C(=O)NCCN8C(=O)C=CC8=O)C(O)C(OC8OCC(O)C(O)C8O)C7OC7OC(CO)C(O)C(O)C7O)[C@@](C)(C=O)C6CC[C@@]5(C)[C@]3(C)C[C@H]4O)C(OC3OC(C)C(OC4OCC(O)C(OC5OC(CO)C(O)C(O)C5O)C4O)C(O)C3O)C2O)C(O)C(OC2OCC(O)C(O)C2O)C1O` (stereo partly drawn) [Molecule 19]: the “Endosomal escape enhancing activity” value in data set [1] is “display activity”. With `CC(=O)OC1C(C)OC(OC2C(C)OC(OC(=O)[C@]34CCC(C)(C)CC3C3=CCC5[C@@]6(C)CC[C@H](OC7OC(C(=O)NCCN8C(=O)C=CC8=O)C(O)C(OC8OCC(O)C(O)C8O)C7OC7OC(CO)C(O)C(O)C7O)[C@@](C)(CO)C6CC[C@@]5(C)[C@]3(C)C[C@H]4O)C(OC3OC(C)C(OC4OCC(O)C(OC5OC(CO)C(O)C(O)C5O)C4O)C(O)C3O)C2O)C(O)C1OC1OCC(O)C(O)C1O` (stereo partly drawn) [Molecule 20], the “Endosomal escape enhancing activity” value in data set [1] was “have the capacity to enhance the cytotoxic effect”.
